Laboratory results from ChEMBL document CHEMBL4825691, “Antimicrobial, modulatory, and antibiofilm activity of tt-farnesol on bacterial and fungal strains of importance to human health” (2021).
Values after ≈ are worked out from the molar mass of the structure shown.

Key:
Assay type in all cases: functional
Salmonella typhimurium = experiment: Antibacterial activity against Salmonella enterica subsp. enterica serovar Typhimurium ATCC 14028 assessed as inhibition of bacterial growth incubated for 24 hrs by microdilution assay
Staphylococcus aureus [1] = experiment: Antibiofilm activity against drug-resistant Staphylococcus aureus MED 55 assessed as inhibition of biofilm formation incubated for 24 hrs by crystal violet staining based microtiter plate method
Streptococcus sobrinus [2] = experiment: Bactericidal activity against Streptococcus sobrinus ATCC 27351 assessed as bacterial killing incubated for 24 hrs by microdilution assay
Streptococcus pyogenes [3] = experiment: Antimicrobial activity against Streptococcus pyogenes ATCC 19615 assessed assessed as reduction in bacterial growth at 1/4 times of drug MIC in the presence of Ampicillin by microdilution method
[4] = tested on: Staphylococcus epidermidis; experiment: Bactericidal activity against Staphylococcus epidermidis 70 D assessed as bacterial killing incubated for 24 hrs by microdilution assay
Streptococcus sobrinus [5] = experiment: Antimicrobial activity against Streptococcus sobrinus ATCC 27351 assessed assessed as reduction in bacterial growth at 1/4 times of drug MIC in the presence of Ampicillin by microdilution method
Streptococcus sobrinus [6] = experiment: Antimicrobial activity against Streptococcus sobrinus ATCC 27351 assessed assessed as reduction in bacterial growth at 1/8 times of drug MIC in the presence of Ampicillin by microdilution method
Streptococcus agalactiae [7] = experiment: Antibiofilm activity against drug-resistant Streptococcus agalactiae ATCC 13813 assessed as inhibition of biofilm formation incubated for 24 hrs by crystal violet staining based microtiter plate method
Escherichia coli [8] = experiment: Antibacterial activity against Escherichia coli EAEC I 4913 assessed as inhibition of bacterial growth incubated for 24 hrs by microdilution assay
Enterococcus durans [9] = experiment: Antibacterial activity against Enterococcus durans BIO 0114 assessed as inhibition of bacterial growth incubated for 24 hrs by microdilution assay
Escherichia coli [10] = experiment: Antibacterial activity against Escherichia coli EOL 931 assessed as inhibition of bacterial growth incubated for 24 hrs by microdilution assay
Enterococcus durans [11] = experiment: Antibiofilm activity against drug-resistant Enterococcus durans BIO01 assessed as inhibition of biofilm formation incubated for 24 hrs by crystal violet staining based microtiter plate method
Streptococcus sobrinus [12] = experiment: Antibacterial activity against Streptococcus sobrinus ATCC 27351 assessed as inhibition of bacterial growth incubated for 24 hrs by microdilution assay
Streptococcus agalactiae [13] = experiment: Bactericidal activity against Streptococcus agalactiae ATCC 13813 assessed as bacterial killing incubated for 24 hrs by microdilution assay
Staphylococcus aureus [14] = experiment: Antimicrobial activity against Staphylococcus aureus MED 55 assessed assessed as reduction in bacterial growth at 1/4 times of drug MIC in the presence of Oxacillin by microdilution method
Escherichia coli [15] = experiment: Antibacterial activity against Escherichia coli ETEC 2589093 assessed as inhibition of bacterial growth incubated for 24 hrs by microdilution assay
Streptococcus mutans [16] = experiment: Antimicrobial activity against Streptococcus mutans ATCC 25175 assessed assessed as reduction in bacterial growth at 1/8 times of drug MIC in the presence of Ampicillin by microdilution method
[17] = tested on: Staphylococcus epidermidis; experiment: Antibiofilm activity against drug-resistant Staphylococcus epidermidis 70 D assessed as inhibition of biofilm formation incubated for 24 hrs by crystal violet staining based microtiter plate method
Streptococcus pyogenes [18] = experiment: Antibacterial activity against Streptococcus pyogenes ATCC 19615 assessed as inhibition of bacterial growth incubated for 24 hrs by microdilution assay
Staphylococcus aureus [19] = experiment: Bactericidal activity against Staphylococcus aureus MED 55 assessed as bacterial killing incubated for 24 hrs by microdilution assay
Escherichia coli [20] = experiment: Antibacterial activity against Escherichia coli EIEC E20851 assessed as inhibition of bacterial growth incubated for 24 hrs by microdilution assay
Staphylococcus aureus [21] = experiment: Antimicrobial activity against Staphylococcus aureus MED 55 assessed assessed as reduction in bacterial growth at 1/4 times of drug MIC in the presence of vancomycin by microdilution method
Staphylococcus aureus [22] = experiment: Antimicrobial activity against […] assessed assessed as reduction in bacterial growth at 1/4 times of drug MIC in the presence of Oxacillin by microdilution method
[23] = tested on: Stenotrophomonas maltophilia; experiment: Antibacterial activity against Stenotrophomonas maltophilia EM 0104assessed as inhibition of bacterial growth incubated for 24 hrs by microdilution assay
Staphylococcus aureus [24] = experiment: Antimicrobial activity against Staphylococcus aureus MED 55 assessed assessed as reduction in bacterial growth at 1/2 times of drug MIC in the presence of Oxacillin by microdilution method
[25] = tested on: Staphylococcus epidermidis; experiment: Bactericidal activity against Staphylococcus epidermidis ATCC 12228 assessed as bacterial killing incubated for 24 hrs by microdilution assay
Staphylococcus aureus [26] = experiment: Antimicrobial activity against Staphylococcus aureus ATCC 29213 assessed assessed as reduction in bacterial growth at 1/4 times of drug MIC in the presence of vancomycin by microdilution method
Shigella flexneri = experiment: Antibacterial activity against Shigella flexneri CCCD S006 assessed as inhibition of bacterial growth incubated for 24 hrs by microdilution assay
Streptococcus mutans [27] = experiment: Antibiofilm activity against drug-resistant Streptococcus mutans ATCC 25175 assessed as inhibition of biofilm formation incubated for 24 hrs by crystal violet staining based microtiter plate method
Staphylococcus aureus [28] = experiment: Antibiofilm activity against drug-resistant Staphylococcus aureus ATCC 43300 assessed as inhibition of biofilm formation incubated for 24 hrs by crystal violet staining based microtiter plate method
[29] = tested on: Staphylococcus epidermidis; experiment: Antimicrobial activity against Staphylococcus epidermidis 70 D assessed assessed as reduction in bacterial growth at 1/8 times of drug MIC in the presence of vancomycin by microdilution method
Streptococcus agalactiae [30] = experiment: Antimicrobial activity against Streptococcus agalactiae ATCC 13813 assessed assessed as reduction in bacterial growth at 1/4 times of drug MIC in the presence of Oxacillin by microdilution method
Streptococcus mutans [31] = experiment: Bactericidal activity against Streptococcus mutans ATCC 25175 assessed as bacterial killing incubated for 24 hrs by microdilution assay
Acinetobacter baumannii = experiment: Antibacterial activity against Acinetobacter baumannii ATCC 19606 assessed as inhibition of bacterial growth incubated for 24 hrs by microdilution assay; conditions: ATCC 19606 = CIP 70.34 = JCM 6841
[32] = tested on: Staphylococcus epidermidis; experiment: Antimicrobial activity against Staphylococcus epidermidis ATCC 12228 assessed assessed as reduction in bacterial growth at 1/4 times of drug MIC in the presence of Oxacillin by microdilution method
[33] = tested on: Staphylococcus epidermidis; experiment: Ratio of MBC to MIC against Staphylococcus epidermidis 70 D
Streptococcus pyogenes [34] = experiment: Antibiofilm activity against drug-resistant Streptococcus pyogenes ATCC 19615 assessed as inhibition of biofilm formation incubated for 24 hrs by crystal violet staining based microtiter plate method
Serratia marcescens = experiment: Antibacterial activity against Serratia marcescens ATCC 13880 assessed as inhibition of bacterial growth incubated for 24 hrs by microdilution assay; conditions: subsp. marcescens ATCC 13880
Escherichia coli [35] = experiment: Antibacterial activity against Escherichia coli EHEC 933 assessed as inhibition of bacterial growth incubated for 24 hrs by microdilution assay

Which results are given for CC(C)=CCC/C(C)=C/CC/C(C)=C/CO [FARNESOL]?
MIC (Salmonella typhimurium): > 1020 µg/mL; MIC (Staphylococcus aureus [1]): 2 µg/mL (≈ 8.99 µM); MBC (Streptococcus sobrinus [2]): 16 µg/mL (≈ 72 µM); MIC (Streptococcus pyogenes [3]): 0.063 µg/mL; MBC [4]: 128 µg/mL (≈ 576 µM); MIC (Streptococcus sobrinus [5]): 0.125 µg/mL; MIC (Streptococcus sobrinus [6]): 0.125 µg/mL; MIC (Streptococcus agalactiae [7]): 4 µg/mL (≈ 18 µM); MIC (Escherichia coli [8]): > 1020 µg/mL; MIC (Enterococcus durans [9]): 64 µg/mL (≈ 288 µM); MIC (Escherichia coli [10]): > 1020 µg/mL; MIC (Enterococcus durans [11]): 64 µg/mL (≈ 288 µM); MIC (Streptococcus sobrinus [12]): 8 µg/mL (≈ 36 µM); MBC (Streptococcus agalactiae [13]): 32 µg/mL (≈ 144 µM); MIC (Staphylococcus aureus [14]): 128 µg/mL; MIC (Escherichia coli [15]): > 1020 µg/mL; MIC (Streptococcus mutans [16]): 0.5 µg/mL; MIC [17]: 64 µg/mL (≈ 288 µM); MIC (Streptococcus pyogenes [18]): 16 µg/mL (≈ 72 µM); MBC (Staphylococcus aureus [19]): 128 µg/mL (≈ 576 µM); MIC (Escherichia coli [20]): > 1020 µg/mL; MIC (Staphylococcus aureus [21]): 2 µg/mL; MIC (Staphylococcus aureus [22]): 8 µg/mL; MIC [23]: > 1020 µg/mL; MIC (Staphylococcus aureus [24]): 128 µg/mL; MBC [25]: > 128 µg/mL; MIC (Staphylococcus aureus [26]): 2 µg/mL; MIC (Shigella flexneri): > 1020 µg/mL; MIC (Streptococcus mutans [27]): 128 µg/mL (≈ 576 µM); MIC (Staphylococcus aureus [28]): 32 µg/mL (≈ 144 µM); MIC [29]: 2 µg/mL; MIC (Streptococcus agalactiae [30]): 0.25 µg/mL; MBC (Streptococcus mutans [31]): > 512 µg/mL; MIC (Acinetobacter baumannii): > 1020 µg/mL; MIC [32]: 0.25 µg/mL; Ratio [33]: 2; MIC (Streptococcus pyogenes [34]): 16 µg/mL (≈ 72 µM); MIC (Serratia marcescens): > 1020 µg/mL; MIC (Escherichia coli [35]): > 1020 µg/mL
